Test results reported in patent US10183019B2, “Treatment of cancer with dihydropyrazino-pyrazines” (Signal Pharmaceuticals, LLC, priority 2013, dated 2019).

Legend:
[1] = test system: patient-derived GBM cell line 206; assay: Combination effect of Compound 1 and TMZ on cell survival (fractional product); assay type: cell-based; details: 168 h, 7 days, read-out: % Actual inh.
From the text: (§1) TMZ is an alkylating agent that delivers a methyl group to the purine bases of DNA (O^6-guanine; N^7-guanine and N^3-adenine). The cytotoxic lesion, O^6-methylguanine (O^6-MeG), caused by TMZ can be directly removed by methylguanine methyltransferase (MGMT) via direct repair and can also activate mechanisms of mismatch repair (MMR). Futile cycles of MMR lead to the formation of double-stranded DNA breaks and activation of the DNA-PK mediated mechanisms of double-stranded break repair.
(§2) Tumorspheres grown under tumorsphere culture conditions were harvested, dissociated into single cells, and plated at 5,000 cells/well in 96-well plates. […] When the value of the column % actual inhibition divided by % inhibition calculated based on summation is >1=synergism, ˜1=summation, <1=antagonism.

[2] = test system: patient-derived GBM cell line 217; assay: as above; assay type: cell-based; details: 168 h, 7 days, read-out: % Actual inh.
From the text: as §1, §2

[3] = test system: patient-derived GBM cell line 308; assay: Gliomasphere Formation Assay; assay type: cell-based; details: cell line 308, Recurrent, MGMT Unkn/Highly Expressed; 50% sphere formation vs DMSO control
Description: (§3) Primary patient-derived GBM tumor samples were dissociated and plated under culture conditions (i.e. DMEM/F12 medium supplemented with B27, 20 ng/mL bFGF, 50 ng/mL EGF, penicillin/streptomycin, L-glutamine and 5 ug/mL heparin) that produce gliomaspheres. Cells were plated at a density of 50 cells per well and allowed to acclimate overnight at 37° C. The Dihydropyrazino-Pyrazine Compounds were added to the cultures on Day 2 and replenished every 7 days. EGF and FGF were also replenished every 7 days. The cells were fixed with PFA/methanol when the smallest sphere was greater than 60 microns, typically 3-5 weeks. The cells were fixed with PFA/methanol and the next day assessed for cell number, using for example, SYTO-9 fluorescent DNA dye. Plates were read 48 h later with a laser scanning imager.

[4] = test system: patient-derived GBM cell line 217; assay: Gliomasphere Formation Assay; assay type: cell-based; details: cell line 217, Primary; 50% sphere formation vs DMSO control
Description: as §3

[5] = test system: patient-derived GBM cell line 296; assay: Gliomasphere Formation Assay; assay type: cell-based; details: cell line 296, Recurrent, MGMT status −; 50% sphere formation vs DMSO control
Description: as §3

[6] = test system: patient-derived GBM cell line 245; assay: Gliomasphere Formation Assay; assay type: cell-based; details: cell line 245, Recurrent; 50% sphere formation vs DMSO control
Description: as §3

[7] = test system: patient-derived GBM cell line 350; assay: Gliomasphere Formation Assay; assay type: cell-based; details: cell line 350, Recurrent; 50% sphere formation vs DMSO control
Description: as §3

[8] = test system: HF2354 PDX (GBM neurosphere line HF2354); assay: Patient derived xenograft (PDX) survival study; assay type: in vivo, nude mouse; details: HF2354 PDX in nude mice; 10 mg/kg oral gavage once a day, Monday through Friday
Description: FIG. 2: Kaplan-Meier survival analysis for HF2354 PDX line (end of study). Treatment schedule for survival (Rx) and target hit (TH) are indicated.
Immunocompromised mice (nude mouse NCRNU-M, TACONIC) were implanted with a GBM neurosphere line derived from fresh surgical specimens. The cell line was characterized as following:
Patient derived xenograft (PDX) treatments started four weeks prior to when the first animal was expected to become symptomatic. […] Control animals were administered vehicle alone. Target hit cohorts were treated with one dose of each compound and sacrificed 2 and 24 h later (n=3/group). As necessary, fluids and supplemental food were administered to ameliorate weight loss.

[9] = test system: patient-derived GBM cell line 250; assay: Gliomasphere Cell Number Assay; assay type: cell-based; details: cell line 250, Recurrent, MGMT Unkn/Highly Expressed; 50% cell numbers vs DMSO control, Day 2 to Day 9; read-out: IC50 Cell Survival
Description: (§4) Gliomasphere Cell Number Assay. Primary patient-derived GBM tumor samples were dissociated and plated under culture conditions that produce gliomaspheres (i.e. DMEM/F12 medium supplemented with B27, 20 ng/mL bFGF, 50 ng/mL EGF, penicillin/streptomycin, L-glutamine and 5 ug/mL heparin). Cells were plated at a density of 5000 cells/well and allowed to acclimate overnight at 37° C. The Dihydropyrazino-Pyrazine Compounds were added to the cultures on Day 2 and cells were kept in culture until Day 9. On Day 9, the cells were fixed with PFA/methanol and the next day assessed for cell number, using for example, SYTO-9 fluorescent DNA dye. Plates were read 48 h later with a laser scanning imager.

[10] = test system: patient-derived GBM cell line 206; assay: Gliomasphere Cell Number Assay; assay type: cell-based; details: cell line 206, Recurrent, MGMT Unkn/Highly Expressed; 50% cell numbers vs DMSO control, Day 2 to Day 9; read-out: IC50 Cell Survival
Description: as §4

[11] = test system: patient-derived GBM cell line 217; assay: Gliomasphere Cell Number Assay; assay type: cell-based; details: cell line 217, Primary; 50% cell numbers vs DMSO control, Day 2 to Day 9; read-out: IC50 Cell Survival
Description: as §4

[12] = test system: patient-derived GBM cell line 336; assay: Gliomasphere Cell Number Assay; assay type: cell-based; details: cell line 336, Recurrent, MGMT status +; 50% cell numbers vs DMSO control, Day 2 to Day 9; read-out: IC50 Cell Survival
Description: as §4

[13] = test system: patient-derived GBM cell line 254; assay: Gliomasphere Cell Number Assay; assay type: cell-based; details: cell line 254, Recurrent; 50% cell numbers vs DMSO control, Day 2 to Day 9; read-out: IC50 Cell Survival
Description: as §4

[14] = test system: patient-derived GBM cell line 277; assay: Gliomasphere Cell Number Assay; assay type: cell-based; details: cell line 277, Secondary/Recurrent; 50% cell numbers vs DMSO control, Day 2 to Day 9; read-out: IC50 Cell Survival
Description: as §4

[15] = test system: patient-derived GBM cell line 296; assay: Gliomasphere Cell Number Assay; assay type: cell-based; details: cell line 296, Recurrent, MGMT status −; 50% cell numbers vs DMSO control, Day 2 to Day 9; read-out: IC50 Cell Survival
Description: as §4

[16] = test system: patient-derived GBM cell line 157; assay: Gliomasphere Cell Number Assay; assay type: cell-based; details: cell line 157, Primary, MGMT status −; 50% cell numbers vs DMSO control, Day 2 to Day 9; read-out: IC50 Cell Survival
Description: as §4

[17] = test system: patient-derived GBM cell line 347; assay: Gliomasphere Cell Number Assay; assay type: cell-based; details: cell line 347, Recurrent, MGMT status −; 50% cell numbers vs DMSO control, Day 2 to Day 9; read-out: IC50 Cell Survival
Description: as §4

[18] = test system: patient-derived GBM cell line 378; assay: Gliomasphere Cell Number Assay; assay type: cell-based; details: cell line 378, Recurrent, MGMT status −; 50% cell numbers vs DMSO control, Day 2 to Day 9; read-out: IC50 Cell Survival
Description: as §4

Cn1nnc2c(C(N)=O)ncn2c1=O [TMZ, Temozolomide]
inhibition at 25 µM ([1]; TMZ 25 μM alone): 11.4% | inhibition at 50 µM ([1]; TMZ 50 μM alone): 0% | inhibition at 100 µM ([1]; TMZ 100 μM alone): 0% | inhibition at 200 µM ([1]; TMZ 200 μM alone): 4.3% | inhibition at 25 µM ([2]; TMZ 25 μM alone): 69% | inhibition at 50 µM ([2]; TMZ 50 μM alone): 73% | inhibition at 100 µM ([2]; TMZ 100 μM alone): 77%

CO[C@H]1CC[C@H](N2C(=O)CNc3ncc(-c4ccc(C(C)(C)O)nc4)nc32)CC1 [Compound 2, 7-(6-(2-hydroxypropan-2-yl)pyridin-3-yl)-1-((1r,4r)-4-methoxycyclohexyl)-3,4-dihydropyrazino-[2,3-b]pyrazin-2(1H)-one]
IC50 [3]: 0.0767 µM | IC50 [4]: 0.0689 µM | IC50 [5]: 1.7 µM | IC50 [6]: 0.0651 µM | IC50 [7]: 0.243 µM | survival (Kaplan-Meier) [8]: No effect in survival | IC50 [9]: 0.0507 µM | IC50 [10]: 0.118 µM | IC50 [11]: 0.0963 µM | IC50 [12]: 0.866 µM | IC50 [13]: 0.216 µM | IC50 [14]: 0.106 µM | IC50 [15]: 0.257 µM | IC50 [16]: 0.171 µM | IC50 [17]: 0.173 µM | IC50 [18]: 0.157 µM
